The values below come from US20250332212A1, “METHOD FOR TREATING OR PREVENTING ALOPECIA” (Suzhou Mingren Pharmaceutical Biotechnology Co., Ltd., priority 2024, published 2025).

Square brackets hold non-standard residues; d marks the D form. Ends that are not written are not given here. pS = N[C@@H](COP(=O)(O)O)C(=O)O

Assay type in all cases: in vivo, mouse
In one assay the test system is Wnt10b. Briefly: Wnt10b expression in skin tissue (qPCR, Western blotting). How it is done: To illustrate the regulation of JP1 on the upstream Wnt ligand of β-catenin, this example intersected classical signaling pathway-related Wnt ligands and AGA-related Wnt ligands, and screened out the related Wnt ligands, including Wnt1, Wnt3a, Wnt7b, Wnt10a, and Wnt10b. In this example, qPCR was used to detect the mRNA expression of these Wnt molecules in the skin tissue of the mouse model in Example 6.
(§1) 4.1) Protein extraction: 70 mg of skin tissue was placed in a 1.5 mL centrifuge tube, and 500 μL of tissue lysate RIPA containing protease inhibitor and phosphatase inhibitor was added. The tissue was placed on an ice box, pulverized by a tissue grinder, and then ultrasonically crushed to obtain a tissue suspension, which was then placed in a rotary windmill at 4° C. to be lysed for 2 h. The centrifuge was set at 12,000×g, 4° C., centrifuged for 15 min, and the supernatant was collected as the total protein.
5.1) Heating of protein samples: the total protein content of each tissue was 50 μg; calculate the volume of a corresponding protein sample, make up the volume with saline to 16 μL, then add 4 μL of 5×SDS sampling buffer, heat at 100° C. for 5 min, and then cool at room temperature and store at −20° C. […]
(§2) 7.3) Relative mRNA expression levels of genes were calculated by the […] relative quantification method using GAPDH as an internal reference.
On the technique in general: In qPCR the cycle at which signal appears reflects the starting amount.

The next assay concerns integrin αv. Put plainly: Integrin αv expression in skin tissue (qPCR, immunoblotting, immunofluorescence).
Description: In this example, the mRNA expression levels of RGD-targeting molecules in the skin tissues of three groups of mice, namely, the AGA model control group, the model group and the JP1-treated group, were further examined.
To verify whether JP1 targeted integrin molecules are localized in hair follicles in the skin tissue, this example detected the expression levels, tissue localization, and distribution of integrin αv and integrin β1 in the skin tissue of the mouse model in Example 6 using immunofluorescence staining.
as §1
(§3) 5.1) Heating of protein samples: the total protein content of each tissue was 50 μg; calculate the volume of a corresponding protein sample, make up the volume with saline to 16 μL, then add 4 μL of 5×SDS sampling buffer, heat at 100° C. for 5 min, and then cool at room temperature and store at −20° C.
7.1) Dilute the specific gene amplification primers to 10 µM in ddH2O, prepare the qPCR reaction system according to the instructions in the kit and add them sequentially into a 384-well plate.
as §2
9.5) Primary antibody incubation: the tissue was circled by the histochemical pen, about 50 μL of primary antibody was added dropwise to the tissue, and incubated in a wet box overnight at 4° C., washed 3 times with PBS.

The test system of the next assay is p-c-Raf. Put plainly: Immunoblotting of p-c-Raf in skin tissue. How it is done: as §1, §3
5.7) Primary antibody incubation: the cut protein bands were placed into the corresponding primary antibody and incubated at 4° C. on a shaker overnight, washed with TBST 3 times for 10 min/time.
On the technique in general: In western blotting, separated proteins are transferred to a membrane and probed.

Take “FPGSDRF-RGD (FPG[pS]DRFRGD) [JP1, amino acid S is phosphorylated; JWA peptide]”: the Wnt10b protein expression result in the assay on Wnt10b (Western blotting, dose-dependent) is on record as “significantly up-regulated”. The “Wnt10b mRNA expression” value with Wnt10b (qPCR, P<0.05) is on record as “elevated with a dose-effect relationship”. Moreover, the “integrin αv expression, immunofluorescence staining” value in the assay on integrin αv (each JP1 intervention group, localized in the site of hair follicles) is “elevated”. Also, the “integrin αv protein level (TP-down-regulated)” value with integrin αv (skin tissue, immunoblotting, JP1 P<0.01) was “reversed”. In the assay with integrin αv (skin tissue, qPCR, P<0.01), the “integrin αv expression at the end of the model” value is recorded as “returned to control levels”. In addition, the “integrin αv mRNA expression after JP1 intervention” value in the assay on integrin αv (skin tissue, qPCR, decreased in TP model group, P<0.01) is “significantly elevated”. Further, in the assay on p-c-Raf, the p-c-Raf protein level entry is “not significantly altered”.
